This note sets out measurements from US7491827B2, “Aryl sulfonamides useful as inhibitors of chemokine receptor activity” (Millennium Pharmaceuticals, Inc., priority 2003, dated 2009).

Each structure is given as a SMILES string. Bounds are passed on as bounds.

For one assay, the target named is T1, cloned human CCR8 receptor stably expressed in L1.2 cells (Homo sapiens, UniProt P51685).
T1 construct: expressed in transfected cells
T1 sequence (P51685 whole entry): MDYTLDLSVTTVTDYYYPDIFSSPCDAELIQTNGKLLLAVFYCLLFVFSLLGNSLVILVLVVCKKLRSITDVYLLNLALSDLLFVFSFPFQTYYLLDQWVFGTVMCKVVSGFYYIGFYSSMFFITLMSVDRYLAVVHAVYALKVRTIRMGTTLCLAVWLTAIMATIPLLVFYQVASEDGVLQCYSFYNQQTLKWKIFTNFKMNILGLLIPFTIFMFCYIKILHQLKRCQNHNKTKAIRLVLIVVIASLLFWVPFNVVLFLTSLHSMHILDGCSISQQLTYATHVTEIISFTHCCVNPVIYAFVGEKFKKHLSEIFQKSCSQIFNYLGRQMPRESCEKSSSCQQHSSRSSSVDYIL
The assay can be described thus: whole cell binding screen: inhibition of biotinylated human I309 binding to CCR8 (FMAT 8100 HTS). The conditions noted are these: Ki of compounds to inhibit I-309 binding to CCR8, L1.2/hCCR8 cells, biotinylated human I-309, 10 point concentration response starting at 10 μM. The gist of the method: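 Ten-point dilutions, top 10 μM final, were tested for displacing biotin-I309 from hCCR8-transfected L1.2 cells in HEPES-buffered HBSS with BSA and sodium azide, mixing 0.5 h before FMAT 8100 detection. Signals converted to percent inhibition against untreated wells and a 100 nM excess unlabeled I309 control.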
Turning to `CCNC(=O)N1CCC(NS(=O)(=O)c2ccc(C(=O)Nc3ccccc3C)c3ccccc23)CC1` [Compound F-10, 4-(4-o-Tolylcarbamoly-naphthalene-1-sulfonylamino)-piperidine-1-carboxylic acid ethylamide], the Ki (in general, a dissociation constant, usually derived from enzyme kinetics or from competition with a known ligand) was less than 500 nM.

`CCCC(=O)N1CCC(NS(=O)(=O)c2ccc(NC(=O)C3CCCCC3)c3ccccc23)CC1` [Compound D-16, Cyclohexanecarboxylic acid [4-(1-butyryl-piperidin-4-ylsulfamoyl)-naphthalen-1-yl]-amide] returned a Ki of less than 500 nM.

For the compound `Cc1ccccc1C(=O)Nc1ccc(S(=O)(=O)NC2CCN(C(=O)NC(C)C)CC2)c2ccccc12` [Compound C-46, 4-[4-(2-Methyl-benzoylamino)-naphthalene-1-sulfonylamino]-piperidine-1-carboxylic acid isopropylamide], the Ki was less than 500 nM.

Staying with this assay, now noted: L1.2/hCCR8 cells, biotinylated human I-309, 10 point concentration response starting at 10 μM; read-out: Ki of compounds to inhibit I-309 binding to CCR8.
For the compound `Cc1cccc(NC(=O)c2ccc(S(=O)(=O)NC3CCN(C(=O)OC(C)(C)C)CC3)c3ccccc23)c1C` [Compound F-13, 4-[4-(2,3-Dimethyl-phenylcarbamoyl)-naphthalene-1-sulfonylamino]-piperidine-1-carboxylic acid tert-butyl ester], the Ki is less than 500 nM.

With `Cc1ccccc1C(=O)Nc1ccc(S(=O)(=O)N[C@H]2CCN(C(=O)[C@@H](C)N)C[C@H]2C)c2ccccc12` [Compound J-6, (3R, 4S)-N-{4-[1-(2-(R)-Amno-propionyl)-3-methyl-piperidin-4-ylsulfamoyl]-naphthalen-1-yl}-2-methyl-benzamide], the Ki was less than 500 nM.

As to `Cc1ccccc1C(=O)Nc1ccc(S(=O)(=O)NC2CCN(C(=O)N(C)C)C2)c2c1CCC2` (racemic) [Compound H-73, (±)-3-[7-(2-Methyl-benzoylamino)-indane-4-sulfonylamino]-pyrrolidine-1-carboxylic acid dimethylamide], the inhibition constant (Ki) is less than 1000 nM.

For `CC[C@H](N)C(=O)N1CCC(NS(=O)(=O)c2ccc(NC(=O)c3ccccc3C)c3ccccc23)CC1` [Compound C-126, (S)-N-{4-[1-(2-Amino-butyryl)-piperidin-4-ylsulfamoyl]-naphthalen-1-yl}-2-methyl-benzamide], the Ki was less than 500 nM.

Regarding `Cc1ccccc1C(=O)Nc1ccc(S(=O)(=O)N[C@H]2CCN(Cc3ccccc3)C[C@H]2C)c2c1CCC2` (racemic) [Compound H-74, (±)-cis-N-[7-(1-Benzyl-3-methyl-piperidin-4-ylsulfamoyl)-indan-4-yl]-2-methyl-benzamide], the Ki is less than 1000 nM.

`Cc1ccccc1NC(=O)c1ccc(S(=O)(=O)NC2CCNCC2)c2ccccc12` [Compound F-5, 4-(Piperidin-4-ylsulfamoyl)-naphthalene-1-carboxylic acid o-tolylamide]: the inhibition constant (Ki) is less than 30000 nM.

On to `O=C(Nc1ccc(S(=O)(=O)NCc2ccncc2)c2ccccc12)c1ccccc1` [Compound A-13, N-{4-[(Pyridin-4-ylmethyl)-sulfamoyl]-naphthalen-1-yl}-benzamide], for which the Ki was less than 30000 nM.

With `Cc1ccccc1C(=O)Nc1ccc(S(=O)(=O)NC2CCN(C(=O)[C@@H]3CCCN3C)CC2)c2ccccc12` [Compound C-124, (S)-2-Methyl-N-{4-[1-(1-methyl-pyrrolidine-2-carbonyl)-piperidin-4-ylsulfamoyl]-naphthalen-1-yl}-benzamide], the Ki is less than 500 nM.

With `CCCC(=O)N1CC[C@H](NS(=O)(=O)c2ccc(NC(=O)c3cccnc3C)c3ccccc23)[C@@H](C)C1` (racemic) [Compound D-10, (±)-(trans)-N-[4-(1-Butyryl-3-methyl-piperidin-4-ylsulfamoyl)-naphthalen-1-yl]-2-methyl-nicotinamide], the Ki is less than 500 nM.

For the compound `COC(=O)N1CCC(NS(=O)(=O)c2ccc(NC(=O)c3ccccc3C)c3c2CCCC3)CC1` [Compound E-15, 4-[4-(2-Methyl-benzoylamino)-5,6,7,8-tetrahydro-naphthalene-1-sulfonylamino]-piperidine-1-carboxylic acid methyl ester], the Ki was less than 500 nM.

For the compound `Cc1cccc(NC(=O)c2ccc(S(=O)(=O)NC3CCN(C(=O)N(C)C)CC3)c3ccccc23)c1C` [Compound F-20, 4-[4-(2,3Dimethyl-phenylcarbamoyl)-naphthalene-1-sulfonylamino]-piperidine-1-carboxylic acid dimethylamide], the inhibitory constant (Ki) is less than 500 nM.

Take `Cc1ccccc1C(=O)Nc1ccc(S(=O)(=O)N[C@H]2CCN(C(=O)C(C)N)C[C@H]2C)c2cccnc12` (stereo in doubt) [Compound J-39, (3R, 4S)-N-{5-[1-(2-(R)-Amino-propionyl)-3-methyl-piperidin-4-ylsulfamoyl]-quinolin-8-yl}-2-methyl-benzamide]: the Ki was less than 500 nM.

`Cc1ccccc1C(=O)Nc1ccc(S(=O)(=O)N[C@H]2CCN(C(=O)C3(N)CC3)C[C@H]2C)c2ccccc12` [Compound J-9, (3R, 4S)-N-{4-[1-(1-Amino-cyclopropanecarbonyl)-3-methyl-piperidin-4-ylsuffamoyl]-naphthalen-1-yl}-2-methyl-benzamide]: the Ki was less than 500 nM.

Consider `CCC(=O)N1CCC(NS(=O)(=O)c2ccc(NC(=O)c3ccccc3Cl)c3ccccc23)CC1` [Compound C-103, 2-Chloro-N-[4-(1-propionyl-piperidin-4-ylsuffamoyl)-naphthalen-1-yl]-benzamide], for which the Ki was less than 500 nM.

Consider `CC(C)(C)OC(=O)N1CCC(NS(=O)(=O)c2ccc(NC(=O)c3ccccc3)c3ccccc23)C1` (stereo not shown) [Compound A-37, 3-(4-Benzoylamino-naphthalene-1-sulfonylamino)-pyrrolidine-1-carboxylic acid tert-butyl ester], for which the Ki is less than 500 nM.

On to `CCCC(=O)N1CCC(NS(=O)(=O)c2ccc(NC(=O)c3ccccc3C)c3c2CCCC3)CC1` [Compound E-1, N-[4-(1-Butyryl-piperidin-4-ylsulfamoyl)-5,6,7,8-tetrahydro-naphthalen-1-yl]-2-methyl-benzamide], for which the Ki is less than 500 nM.

As for `Cc1ccccc1C(=O)Nc1ccc(S(=O)(=O)NC2CCN(C(=O)OC(C)C)CC2)c2c1CCCC2` [Compound E-16, 4-[4-(2-Methyl-benzoylamino)-5,6,7,8-tetrahydro-naphthalene-1-sulfonylamino]-piperidine-1-carboxylic acid isopropyl ester], the Ki was less than 500 nM.

Regarding `Cc1ccccc1C(=O)Nc1ccc(S(=O)(=O)NC2CCN(C(=O)CN(C)C)CC2)c2ccccc12` [Compound C-55, N-{4-[1-(2-Dimethylamino-acetl)-piperidin-4-ylsulfamoyl]-naphthalen-1-yl}-2-methyl-benzamide], the Ki was less than 500 nM.

As to `CC(C)(C)OC(=O)N1CCC(NS(=O)(=O)c2ccc(C(=O)NC3CCOCC3)c3ccccc23)CC1` [Compound F-15, 4-[4-(Tetrahydro-pyran-4-ylcarbamoyl)-naphthalene-1-sulfonylamino]-piperidine-1-carboxylic acid tert-butyl ester], the inhibition constant Ki was less than 30000 nM.

Consider `CCOC(=O)N1CCC(NS(=O)(=O)c2cccc3c(NC(=O)N4CCOCC4)cccc23)CC1` [Compound H-17, 4-{5-[(Morpholine-4-carbonyl)-amino]-naphthalene-1-sulfonylamino}-piperidine-1-carboxylic acid ethyl ester], for which the Ki was less than 1000 nM.

As to `CCOC(=O)N1CCC(NS(=O)(=O)c2ccc(CNCc3ccccc3C)c3ccccc23)CC1` [Compound G-11, 4-{4-[(2-Methyl-benzylamino)-methyl]-naphthalene-1-sulfonylamino}-piperidine-1-carboxylic acid ethyl ester], the Ki was less than 500 nM.

As to `CCCC(=O)N1C[C@@H](C)[C@@H](NS(=O)(=O)c2ccc(NC(=O)c3ccccc3C)c3ccccc23)[C@@H](C)C1` [Compound C-69, (±)-(cisscis)-N-[4-(1-Butyryl-3,5-dimethyl-piperidin-4-ylsulfamoyl)-naphthalen-1-yl]-2-methyl-benzamide], the Ki is less than 1000 nM.

In the case of `O=C(Nc1ccc(S(=O)(=O)NC2CCN(Cc3ccccc3)CC2)c2ccccc12)c1ccccc1` [Compound A-25, N-[4-(1-Benzyl-piperidin-4-ylsulfamoyl)-naphthalen-1-yl]-benzamide], the Ki was less than 500 nM.

In the case of `CCOC(=O)N1CCC(NS(=O)(=O)c2cccc3c(CNC4CCCCC4)cccc23)CC1` [Compound H-46, 4-(5-Cyclohexylainnomethyl-naphthalene-1-sulfonylainino)-piperidine-1-carboxylic acid ethyl ester], the Ki is less than 500 nM.

Take `CCCC(=O)N1CCC(NS(=O)(=O)c2ccc(C(=O)Nc3cccc(C)c3)c3ccccc23)CC1` [Compound F-26, 4-(1-Butyryl-piperidin-4-ylsulfamoyl)-naphthalene-1-carboxylic acid m-tolylainde]: the Ki is less than 500 nM.

In the case of `CCCC(=O)N1CCC(NS(=O)(=O)c2cccc3c(C(=O)NC4CCCC(C)C4C)cccc23)CC1` (racemic) [Compound H-31, (±)-5-(1-Butyryl-piperidin-4-ylsulfamoyl)-naphthalene-1-carboxylic acid (2,3-dimethyl-cyclohexyl)-amide], the Ki is less than 500 nM.

Consider `CC(C)(C)OC(=O)N1CCC(NS(=O)(=O)c2ccc(NC(=O)C3CCC3)c3ccccc23)CC1` [Compound B-18, 4-[4-(Cyclobutanecarbonyl-amino)-naphthalene-1-sulfonylamino]-piperidine-1-carboxylic acid tert-butyl ester], for which the Ki is less than 30000 nM.

With `Cc1ccccc1C(=O)Nc1ccc(S(=O)(=O)N[C@H]2CCN(Cc3ccccc3)C[C@H]2C)c2c1CCCC2` (racemic) [Compound E-13, (±)-cis-N-[4-(1-Benzyl-3-methyl-piperidin-4-ylsulfamoyl)-5,6,7,8-tetrahydro-naphthalen-1-yl]-2-methyl-benzamide], the Ki was less than 1000 nM.
